Source: patent publication US20250127863A1, “ANTIMICROBIAL PEPTIDE FOR ONYCHOMYCOSIS” (CBMR SCIENTIFIC NANOSCIENCE B.V., priority 2019, published 2025)
No end group written: not given here.

How the values were obtained:
[1] = system: Aspergillus fumigatus; assay: MIC90 growth inhibition; format: cell-based; settings: RPMI 1640 one-fourth strength
Method: (§1) The minimum inhibitory concentration (MIC) value is defined as the lowest sample concentration that inhibited growth. In the Examples, the MIC90 value is presented, which MIC90 values are determined according to established methods known to the person with the skills in the relevant art. Experiments; 1×10E5 CFU of various strains/ml were incubated for 24-48 h at 37° C. in 4× diluted medium of RPMI 1640 with the indicated concentrations of antimicrobial peptide hLF(1-11) [SEQ ID NO: 3]. As controls various strains cells were incubated for 24-48 h at 37° C. with no agent (antimicrobial peptide), and subsequently, growth of the microbial organism (e.g. yeast, bacterium) was monitored by using spectrophotometry with a spectrophotometer at 620 nm. […] ND=Not done. Representative single assay data are listed rather than a range, for clarity reasons and for ease of comparison of peptide efficacy. The MIC was calculated as the lowest antibiotic (antimicrobial peptide) concentration at which growth of the assessed yeast or bacterium (microbe) was inhibited (inhibitory concentration IC90).

[2] = system: Aspergillus spp; assay: MIC90 growth inhibition; format: cell-based; settings: RPMI 1640 one-fourth strength
Method: as §1

[3] = system: Aspergillus tamarii; assay: MIC90 growth inhibition; format: cell-based; settings: RPMI 1640 one-fourth strength
Method: as §1

[4] = system: Aspergillus terreus; assay: MIC90 growth inhibition; format: cell-based; settings: RPMI 1640 one-fourth strength
Method: as §1

[5] = system: Aspergillus ungius; assay: MIC90 growth inhibition; format: cell-based; settings: RPMI 1640 one-fourth strength
Method: as §1

[6] = system: Aspergillus versicolor; assay: MIC90 growth inhibition; format: cell-based; settings: RPMI 1640 one-fourth strength
Method: as §1

[7] = system: C. neoformans; assay: MIC90 growth inhibition; format: cell-based; settings: RPMI 1640 one-fourth strength
Method: as §1

[8] = system: Candida spp.; assay: MIC90 growth inhibition; format: cell-based; settings: RPMI 1640 one-fourth strength
Method: as §1

[9] = system: Cladosporium spp; assay: MIC90 growth inhibition; format: cell-based; settings: RPMI 1640 one-fourth strength
Method: as §1

[10] = system: Cladosporium trichoides; assay: MIC90 growth inhibition; format: cell-based; settings: RPMI 1640 one-fourth strength
Method: as §1

[11] = system: Fonsecaea pedrosoi; assay: MIC90 growth inhibition; format: cell-based; settings: RPMI 1640 one-fourth strength
Method: as §1

[12] = system: Fusarium oxysporum; assay: MIC90 growth inhibition; format: cell-based; settings: RPMI 1640 one-fourth strength
Method: as §1

[13] = system: Helicobacter pylori; assay: MIC90 growth inhibition; format: cell-based; settings: RPMI 1640 one-fourth strength
Method: as §1

[14] = system: Malassezia furfur CBS 7019; assay: MIC90 growth inhibition; format: cell-based; settings: RPMI 1640 one-fourth strength
Method: as §1

[15] = system: Malassezia restricta CBS 7877; assay: MIC90 growth inhibition; format: cell-based; settings: RPMI 1640 one-fourth strength
Method: as §1

[16] = system: Meyerozyma spp.; assay: MIC90 growth inhibition; format: cell-based; settings: RPMI 1640 one-fourth strength
Method: as §1

[17] = system: Penicillium spp. such as aff. Carbonarius; assay: MIC90 growth inhibition; format: cell-based; settings: RPMI 1640 one-fourth strength
Method: as §1

[18] = system: Penicillium spp; assay: MIC90 growth inhibition; format: cell-based; settings: RPMI 1640 one-fourth strength
Method: as §1

[19] = system: Saccharomyces cerevisiae spp; assay: MIC90 growth inhibition; format: cell-based; settings: RPMI 1640 one-fourth strength
Method: as §1

[20] = system: Staphylococcus epidermidis; assay: MIC90 growth inhibition; format: cell-based; settings: RPMI 1640 one-fourth strength
Method: as §1

[21] = system: Streptococcus mitis; assay: MIC90 growth inhibition; format: cell-based; settings: RPMI 1640 one-fourth strength
Method: as §1

[22] = system: Streptococcus mutans; assay: MIC90 growth inhibition; format: cell-based; settings: RPMI 1640 one-fourth strength
Method: as §1

[23] = system: Streptocococcus mitis 032; assay: MIC90 growth inhibition; format: cell-based; settings: RPMI 1640 one-fourth strength
Method: as §1

[24] = system: Trichophyton mucoides; assay: MIC90 growth inhibition; format: cell-based; settings: RPMI 1640 one-fourth strength
Method: as §1

[25] = system: Trichophyton rubrum; assay: MIC90 growth inhibition; format: cell-based; settings: RPMI 1640 one-fourth strength
Method: as §1

[26] = system: Trichophyton tonsurans; assay: MIC90 growth inhibition; format: cell-based; settings: RPMI 1640 one-fourth strength
Method: as §1

[27] = system: Trichophyton violaceum; assay: MIC90 growth inhibition; format: cell-based; settings: RPMI 1640 one-fourth strength
Method: as §1

[28] = system: Trichosporon beigelii; assay: MIC90 growth inhibition; format: cell-based; settings: RPMI 1640 one-fourth strength
Method: as §1

[29] = system: Trichosporon cutaneum; assay: MIC90 growth inhibition; format: cell-based; settings: RPMI 1640 one-fourth strength
Method: as §1

[30] = system: Vibrio cholerae; assay: MIC90 growth inhibition; format: cell-based; settings: RPMI 1640 one-fourth strength
Method: as §1

[31] = system: Zygosaccharomyces bisprous; assay: MIC90 growth inhibition; format: cell-based; settings: RPMI 1640 one-fourth strength
Method: as §1

[32] = system: Hypercrealis spp.; format: cell-based; settings: Hypercrealis spp. strain from nail samples of patients D, E
Method: as §1
(§2) For two patients D, E who were treated with a solution comprising the high concentration of the antimicrobial peptide, in their nail samples strains of Trichophyton interdigitalis and Hypercrealis spp. were determined. […]

[33] = system: Trichophyton interdigitalis; format: cell-based
Method: as §1, §2

[34] = system: S. epidermidis Type 2163; assay: MIC90 growth inhibition; format: cell-based, Staphylococcus epidermidis; settings: RPMI 1640 one-fourth strength
Method: as §1

GRRRRSVQWCA [hLF1-11, Gly Arg Arg Arg Arg Ser Val Gln Trp Cys Ala]
Inhibitory concentration MIC (MIC90) [1]: MIC = 2.5-25 μg/ml
Inhibitory concentration MIC (MIC90) [2]: MIC = 2.5-12.5 μg/ml
Inhibitory concentration MIC (MIC90) [3]: MIC = 2.5-12.5 μg/ml
Inhibitory concentration MIC (MIC90) [4]: MIC = 2.5-12.5 μg/ml
Inhibitory concentration MIC (MIC90) [5]: MIC = 3.1-25 μg/ml
Inhibitory concentration MIC (MIC90) [6]: MIC = 10 μg/ml
Inhibitory concentration MMC [7]: MMC = 50 μg/ml
Inhibitory concentration MIC (MIC90) [8]: MIC = 12.5-50 μg/ml
Inhibitory concentration MIC (MIC90) [9]: MIC = 3.1-12.5 μg/ml
Inhibitory concentration MIC (MIC90) [10]: MIC = 5 μg/ml
Inhibitory concentration MIC (MIC90) [11]: MIC = 5 μg/ml
Inhibitory concentration MIC (MIC90) [12]: MIC = 8-16 μM
Inhibitory concentration MIC (MIC90) [13]: MIC = 12.5-50 μg/ml
Inhibitory concentration MIC (MIC90) [14]: MIC = 12.5-50 μg/mL
Inhibitory concentration MIC (MIC90) [15]: MIC = 50 μg/mL
Inhibitory concentration MIC (MIC90) [16]: MIC = 25-50 μg/mL
Inhibitory concentration MIC (MIC90) [17]: MIC = 45 μg/ml
Inhibitory concentration MIC (MIC90) [18]: MIC = 12.5-50 μg/ml
Inhibitory concentration MIC (MIC90) [19]: MIC = 0.63-50 μg/ml
Inhibitory concentration MIC (MIC90) [20]: MIC = 3.1 μg/ml
Inhibitory concentration MIC (MIC90) [21]: MIC = 3.1 μg/ml
Inhibitory concentration MIC (MIC90) [22]: MIC = 3.1 μg/ml
Inhibitory concentration MIC (MIC90) [23]: MIC = 6.3 μg/ml
Inhibitory concentration MIC (MIC90) [24]: MIC = 12.5-50 μg/ml
Inhibitory concentration MIC (MIC90) [25]: MIC = 13-60 μg/ml
Inhibitory concentration MIC (MIC90) [26]: MIC = 5-40 μg/ml
Inhibitory concentration MIC (MIC90) [27]: MIC = 40 μg/ml
Inhibitory concentration MIC (MIC90) [28]: MIC = 40 μg/ml
Inhibitory concentration MIC (MIC90) [29]: MIC = 1.25-18 μg/ml
Inhibitory concentration MIC (MIC90) [30]: MIC = 12.5 μg/ml
Inhibitory concentration MIC (MIC90) [31]: MIC = 40 μg/ml
MIC90 value [32]: 50 µg/mL
MIC90 value [33]: 50 µg/mL
Inhibitory concentration MIC (MIC90) [34]: MIC = 3.1 μg/ml
